Test results reported in patent US4935419A, “Novel 1-piperazinecarboxamide derivatives” (priority 1983, dated 1990).
Structures can show the parent of a compound that is named as a salt. Where two headings read alike, the source gives them in different places.

What was measured:
[1] = system: female NMRI mice (writhing behaviour); experiment: Writhing test (acetic acid); assay type: in vivo; conditions: Mus musculus, sc, 20 minutes before acetic acid (0.5%, 15 ml/kg i.p.), dose blocking writhing in 50% of the animals
Experimental: The writhing test is a frequently used test of analgetic properties (Witkin, L. B. et al., J. Pharmacol. Exp. Ther. 133, 400 (1961)). If acetic acid (0.5%, 15 ml/kg) is injected intraperitoneally in mice (NMRI) they will without exception develop a writhing behaviour characterized by stretching their hind legs. The drugs to be tested were administered subcutaneously to 6 female mice at each dose 20 minutes before the injection of the acetic acid. After 10 minutes the behaviour of the mice was studied in 5 minutes. The ED50 -value is the dose blocking the writhing behaviour in 50% of the animals during the 5 minutes study period. [drawing 12]

[2] = system: male NMRI mice (isolation induced aggressive behaviour); experiment: Isolation induced aggressive behaviour test; assay type: in vivo; conditions: Mus musculus, sc, read-out: ED50, isolation induced aggressive behaviour test
Source text: Test 1: Isolation induced aggressive behaviour test
Male mice subjected to prolonged isolation develop aggressive behaviour against each other when paired (Yen, C. Y. et al., Arch. Int. Pharmacodyn. 123, 179, (1959): Valzelli, L., Adv. Pharmacol. 5, 79 (1967)). […] The clinical correlation of this test indicates tranquillizing and anxiolytic activities as well as antiaggressive properties as such (Duncan, R. L. et al., J Med. Chem. 13, 1 (1970)).
This type of aggression is interesting because it is known that this kind of emotional behaviour might be located in limbic structures in the brain (MacLean, P.D., Psychosom. Med. 11, 338 (1949)).
Every week male NMRI mice, weighing 20-22 g, were isolated in Makrolon cages for three weeks with diet and water ad libitum. A piece of cardboard was placed between the cages to prevent visual contact.
To test aggressiveness the mice were paired in a neutral area, a beaker (14 cm high and diameter 14 cm). A pair is considered aggressive if both the animals show clear signs of fighting within 5 minutes. This fighting is characterized by biting and vocalization. […] Animals showing no aggression are discarded. […] The test substance is administered s.c. (0.2-0.4 ml/20 g). The mice are paired 0.5 hour after the injection for trials of 5 minutes duration.
The ED50 -value (mg/kg) reported is the dose inhibiting aggressive behaviour among 50 per cent of the pairs 0.5 hour after drug administration.

[3] = system: female rats (conditioned avoidance response); experiment: Conditioned avoidance response (CAR); assay type: in vivo; conditions: Rattus norvegicus, sc, 1.5 h, read-out: ED50, conditioned avoidance response
Experimental: Test 2: Conditioned avoidance response (CAR)
The effect of the test compounds on CAR was evaluated in a shuttle box, manufactured by Ugo Basile, Italy. The female rats, weighing 150 g, were trained to avoid an electric shock (unconditioned stimulus--US) by escaping from one compartment to the other when the light from a 15W lamp is switched on (conditioned stimulus--CS). When they responded to the CS, a conditioned response (CR) was considered to have been elicited. Rats showing a stable CR of more than 80% after a three weeks' training program were used in the experiments. Groups of six rats were subcutaneously administered with various doses of the test compounds. 11/2 hours after the administration each rat was placed in the experimental box and the effect on CR was evaluated. ED50 -values refer to the dose inhibiting CR in 50% of the animals. The mechanisms regulating conditioned responses are very complex. Both catecholaminergic and hormonal factors are of importance.

[4] = system: male NMRI mice (isolation induced aggressive behaviour); conditions: result in words; clinically used drugs; cited from earlier work
[5] = mice, dose inhibiting aggressive behaviour among 50 per cent of the pairs 0.5 hour after administration
[6] = s.c., rats, dose inhibiting CR in 50% of the animals, 1 1/2 hours after administration

| SMILES | ED50 [1] [mg/kg] | ED50 [2, 5] [mg/kg] | ED50 [3, 6] [mg/kg] | also measured |
| --- | --- | --- | --- | --- |
| CCNC(=O)N1CCN(CCCC(=O)c2ccc(F)cc2)CC1 [1:3, 4-.vertline.4-(p-fluorophenyl)-4-oxobutyl.vertline.-N-ethyl-1-piperazinecarboxamide hydrochloride] | 1.9 | 1.7 | 12 | – |
| CCNC(=O)N1CCN(CCCCc2ccc(F)cc2)CC1 [1:15, 4-.vertline.4-(p-fluorophenyl)butyl.vertline.-N-ethyl-1-piperazinecarboxamide hydrochloride] | 3.7 | 3.5 | 7.9 | – |
| CN(C)CCC=C1c2ccccc2CCc2ccccc21 [Amitriptyline] | – | 5 | – | – |
| CN(C)CCCN1c2ccccc2Sc2ccc(Cl)cc21 [Chlorpromazine] | – | – | – | ED50 ([2]; 0.5 h): 1.4 mg/kg; ED50 [3]: 3.5 mg/kg |
| CN1C(=O)CN=C(c2ccccc2)c2cc(Cl)ccc21 [Diazepam] | – | – | – | activity on isolation induced aggressive behaviour, known drugs [4]: active on this kind of aggressive behaviour |
| CSc1ccc2c(c1)N(CCC1CCCCN1C)c1ccccc1S2 (stereo not drawn) [Thioridazine] | – | 5 | 41 | – |
